Experimental findings from US12447156B2, “Treating progressive familial intrahepatic cholestasis (PFIC) with IBAT inhibitors” (ALBIREO AB, priority 2020, dated 2025) are described below.

The data set can be described thus: Water content and water uptake of crystal modification 1 at different relative humidity. The class given is physicochemical.

As to `CCCCC1(CCCC)CN(c2ccccc2)c2cc(SC)c(OCC(=O)N[C@@H](C(=O)N[C@@H](CC)C(=O)O)c3ccc(O)cc3)cc2S(=O)(=O)N1` [crystal modification 1], for the setting “about 30% relative humidity, based on total crystal weight”, the “water content of crystal” value is on record as “about 3.5 % (w/w)”. The hygroscopicity entry (between about 30 and about 70% RH) is “relatively low hygroscopicity”. The “additional water taken up” value (humidity increased up to 95% RH, fully reversible) is reported as 1.5 % (w/w).
